The values below come from patent US6875743B1, “Cell adhesion inhibitors” (Biogen, Inc., priority 1996, dated 2005).

Each structure is given as a SMILES string. Numbered stars: 1 amine (or outer) side, 2 acyl side, 3 side chain; on linkers, the order of the positions; unused ones are H or OH. Square brackets hold non-standard residues; d marks the D form. Peptide text beside a SMILES is read from it. * marks the point of attachment. ξ: configuration not given here. Quinaldoyl = O=C(c1ccc2ccccc2n1)*; X1 = O=C(Cc1ccc(N[*:1])cc1)[*:2]; NH(2-Me-phenyl) = Cc1ccccc1N*; Tic = O=C(O)[CH]1Cc2ccccc2CN1; Chg = N[CH](C(=O)O)C1CCCCC1; PhAc = O=C(Cc1ccccc1)*; Boc = CC(C)(C)OC(=O)*; CO = O=C([*:1])[*:2]; ξNva = CCCC(N)C(=O)O; NHPh = c1ccc(N*)cc1 Some results are limits rather than exact numbers.

The target of the assay is T1, VLA4 (Homo sapiens, UniProt P05556+P13612).
T1 construct: endogenous in cells; host or cells: Ramos cells
T1 sequence (P13612 34-1032): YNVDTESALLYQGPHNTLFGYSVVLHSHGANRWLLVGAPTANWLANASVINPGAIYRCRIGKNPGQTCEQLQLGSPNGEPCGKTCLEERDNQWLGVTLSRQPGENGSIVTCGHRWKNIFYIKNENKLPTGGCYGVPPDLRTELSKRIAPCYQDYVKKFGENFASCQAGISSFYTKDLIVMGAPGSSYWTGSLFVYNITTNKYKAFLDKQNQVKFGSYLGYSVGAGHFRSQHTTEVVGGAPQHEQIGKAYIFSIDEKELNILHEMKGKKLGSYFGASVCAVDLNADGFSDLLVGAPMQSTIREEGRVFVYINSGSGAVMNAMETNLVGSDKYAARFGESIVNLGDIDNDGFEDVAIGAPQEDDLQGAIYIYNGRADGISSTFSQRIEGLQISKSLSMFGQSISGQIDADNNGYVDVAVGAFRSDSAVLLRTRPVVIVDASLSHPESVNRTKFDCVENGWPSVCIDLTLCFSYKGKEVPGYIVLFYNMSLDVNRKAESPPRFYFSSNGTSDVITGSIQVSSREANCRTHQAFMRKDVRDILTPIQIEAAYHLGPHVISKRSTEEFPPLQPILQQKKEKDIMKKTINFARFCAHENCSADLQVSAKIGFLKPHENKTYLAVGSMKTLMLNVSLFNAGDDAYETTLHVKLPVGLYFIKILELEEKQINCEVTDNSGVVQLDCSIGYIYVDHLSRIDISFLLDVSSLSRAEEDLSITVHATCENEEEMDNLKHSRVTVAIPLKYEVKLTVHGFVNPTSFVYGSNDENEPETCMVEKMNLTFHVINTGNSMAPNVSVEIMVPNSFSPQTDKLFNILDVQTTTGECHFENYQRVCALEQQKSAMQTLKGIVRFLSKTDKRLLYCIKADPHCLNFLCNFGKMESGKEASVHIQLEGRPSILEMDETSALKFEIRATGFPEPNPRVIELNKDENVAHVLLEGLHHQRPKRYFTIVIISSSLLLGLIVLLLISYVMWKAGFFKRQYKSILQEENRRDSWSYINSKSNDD
T1 sequence (P05556 21-798): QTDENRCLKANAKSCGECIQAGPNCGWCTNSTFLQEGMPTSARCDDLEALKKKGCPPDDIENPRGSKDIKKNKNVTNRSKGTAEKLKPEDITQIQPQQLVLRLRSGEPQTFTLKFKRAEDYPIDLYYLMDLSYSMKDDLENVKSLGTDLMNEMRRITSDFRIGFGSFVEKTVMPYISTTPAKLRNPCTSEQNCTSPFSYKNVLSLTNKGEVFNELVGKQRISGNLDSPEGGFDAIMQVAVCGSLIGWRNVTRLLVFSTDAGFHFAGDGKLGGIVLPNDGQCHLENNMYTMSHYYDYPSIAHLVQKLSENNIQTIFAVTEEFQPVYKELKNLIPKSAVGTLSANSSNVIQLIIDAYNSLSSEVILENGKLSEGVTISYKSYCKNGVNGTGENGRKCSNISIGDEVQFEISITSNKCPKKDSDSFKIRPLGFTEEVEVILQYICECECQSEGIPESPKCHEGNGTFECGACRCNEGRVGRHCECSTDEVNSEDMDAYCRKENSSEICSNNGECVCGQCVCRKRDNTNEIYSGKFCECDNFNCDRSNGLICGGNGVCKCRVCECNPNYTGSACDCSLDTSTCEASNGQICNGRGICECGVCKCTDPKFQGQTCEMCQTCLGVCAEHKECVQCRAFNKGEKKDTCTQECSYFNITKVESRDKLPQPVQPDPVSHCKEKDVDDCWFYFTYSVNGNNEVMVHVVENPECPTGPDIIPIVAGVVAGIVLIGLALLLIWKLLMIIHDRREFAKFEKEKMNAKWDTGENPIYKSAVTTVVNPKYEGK
The experiment in a line: Inhibition of VLA4-dependent adhesion to BSA-CS1. In kind it is cell-based. To be noted: binding of BCECF-labelled Ramos cells to BSA-CS1 coated wells, 2 mM MnCl2; read-out: IC50. An excerpt:
For example, the cell adhesion inhibitory activity of these compounds may be measured by determining the concentration of inhibitor required to block the binding of VLA-4-expressing cells to fibronectin- or CS1-coated plates. In this assay microtiter wells are coated with either fibronectin (containing the CS-1 sequence) or CS-1. If CS-1 is used, it must be conjugated to a carrier protein, such as bovine serum albumin, in order to bind to the wells. Once the wells are coated, varying concentrations of the test compound are then added together with appropriately labelled, VLA-4-expressing cells. Alternatively, the test compound may be added first and allowed to incubate with the coated wells prior to the addition of the cells. The cells are allowed to incubate in the wells for at least 30 minutes. Following incubation, the wells are emptied and washed. Inhibition of binding is measured by quantitating the fluorescence or radioactivity bound to the plate for each of the various concentrations of test compound, as well as for controls containing no test compound.
VLA-4-expressing cells that may be utilized in this assay include Ramos cells, Jurkat cells, A375 melanoma cells, as well as human peripheral blood lymophocytes (PBLs). The cells used in this assay may be fluorescently or radioactively labelled.
This assay was used to assess the potency of VLA4-directed inhibitory compounds of this invention.
We dissolved BSA-SMCC (Pierce Chemical, Rockford, Ill.; Catalog #77115) in H2O at a concentration of 10 mg/mL. [SEQ ID NO:4]: […](“Cys-Tyr-CS1 peptide”), which we synthesized by conventional solid phase chemistry and purified by HPLC, was dissolved in 10 mM HEPES pH 5, 50 mM NaCl and 0.1 mM EDTA also at a concentration of 10 mg/mL. We then mixed 500 μL of BSA-SMCC, 250 μL of Cys-Tyr-CS1 peptide and 75 μL of 1 mM HEPES pH 7.5 and allowed the conjugation reaction to proceed for 30 minutes. We stopped the reaction by adding 1 μL of beta-mercaptoethanol. Samples were analyzed for cross-linking by SDS-PAGE.
We coated the wells of a Linbro titertek polystyrene 96-well flat bottom plate (Flow Laboratories, Maclean, Va.; catalog #76-231-05) with 100 μL of the above-described BSA-CS1 solution diluted to 1 μg/mL in 0.05 M NaHCO3 (15 mM NaHCO3, 35 mM Na2CO3) pH 9.2. Some wells were not coated with CS1 in order to assess non-specific cell binding (NSB). The plate was then incubated overnight at 4° C.
Following this incubation, the contents of the wells were removed by inverting and blotting the plate. All of the wells were then blocked with 100 μL of 1% BSA in PBS, 0.02% NaN3, for a minimum of one hour at room temperature.
Ramos cells are grown, maintained and labelled in RPMI 1640 culture medium containing 1% BSA. Just prior to running the assay, we added 2′,7′-bis-(2-carboxyethyl)-5 (and -6) carboxyfluorescein acetoxymethyl ester (“BCECF-AM”; Molecular Probes Inc., Eugene, Oreg.; catalog #B-1150) to a final concentration of 2 μM to a culture of Ramos cells (4×10^6 cells/mL). We incubated the cells for 20 minutes at 37° C.
Following labelling, the cells were washed twice in assay buffer (24 mM TRIS, 137 mM NaCl, 2.7 mM KCl, pH 7.4, containing 0.1% BSA and 2 mM glucose) to remove any cations originating from the culture medium. The cells were then resuspended in assay buffer to 4×10^6 cells/mL and 2 mM MnCl2 was added to upregulate VLA4 on the surface of the cells.
Immediately prior to running the assay, we removed the BSA blocking solution from the 96-well plates and washed the wells with 100 μL of assay buffer. We then added to each well 25 μL of test cell adhesion inhibitory compound at 2× the final concentration and 25 μL of the labelled Ramos cells. […] Each concentration of compound was tested in triplicate. The compound and cells are allowed to incubate for 30 minutes at room temperature.

Consider `CC(C)C[C@@H](NC(=O)Cc1ccc(NC(=O)Nc2ccccc2)cc1)C(=O)N[C@@H](CC(=O)O)C(=O)N[C@H](C(=O)N1CCC[C@H]1C(N)=O)C(C)C` [Compound 209] ({NHPh-CO}-[X1][dL]DVP-NH2), for which the IC50 fell in the range of 50 to 10000 nM.

Regarding `Cc1ccccc1NC(=O)Nc1ccc(CC(=O)N[C@@H](CC(C)C)C(=O)N[C@@H](CC(=O)O)C(=O)N[C@@H](CCC(=O)O)C(N)=O)cc1` [Compound 234], the IC50 is below 50 nM.

On to `CCCC(NC(=O)Cc1ccccc1)C(=O)N[C@@H](CC(=O)O)C(=O)N[C@H](C(=O)NC)C(C)C` (stereo partly drawn) [Compound 49] (PhAc-[ξNva]-Asp-Val-NHMe), for which the IC50 was above 10000 nM.

As to `Cc1ccccc1NC(=O)Nc1ccc(CC(=O)N[C@H](C(=O)N[C@@H](CC(=O)O)C(=O)N[C@H](C(N)=O)[C@@H](C)O)[C@@H](C)O)cc1` [Compound 257], the IC50 was below 50 nM.

As to `CNC(=O)[C@@H](NC(=O)[C@H](CC(=O)O)NC(=O)[C@H](CC(C)C)NC(=O)Cc1ccc(NC(=O)Nc2ccccc2)cc1)C(C)C` [Compound 204], the IC50 was 50 to 10000 nM.

As for `CC[C@H](C)[C@H](NC(=O)[C@H](CC(=O)O)NC(=O)[C@H](CC(C)C)NC(=O)Cc1ccc(NC(=O)Nc2ccccc2C)cc1)C(=O)O` [Compound 345], the IC50 was below 50 nM.

As for `CC(C)C[C@H](NC(=O)c1ccc(C(C)C)cc1)C(=O)N[C@@H](CC(=O)O)C(=O)N[C@H](C(=O)O)C(C)C` [Compound 405], the IC50 was above 10000 nM.

With `Cc1ccccc1NC(=O)Nc1ccc(CC(=O)N[C@@H](CCC(=O)O)C(=O)N[C@@H](CC(=O)O)C(=O)N[C@@H](CC(=O)O)C(N)=O)cc1` [Compound 263], the IC50 was below 50 nM.

For the compound `Cc1ccccc1NC(=O)Nc1ccc(CC(=O)N[C@@H](CC(C)C)C(=O)N[C@@H](CC(=O)O)C(=O)N[C@@H](Cc2c[nH]c3ccccc23)C(N)=O)cc1` [Compound 239], the IC50 is below 50 nM.

`Cc1ccccc1NC(=O)Nc1ccc(CC(=O)N[C@@H](CO)C(=O)N[C@@H](CC(=O)O)C(=O)N[C@@H](CC(C)C)C(N)=O)cc1` [Compound 276]: the IC50 was below 50 nM.

On to `Cc1ccccc1NC(=O)Nc1ccc(CC(=O)N[C@@H](CCC(=O)O)C(=O)N[C@@H](CC(=O)O)C(=O)N[C@H](CO)C(N)=O)cc1` [Compound 273], for which the IC50 is below 50 nM.

Regarding `CCC(C)C(NC(=O)C(CC(=O)O)NC(=O)C(CC(C)C)NC(=O)c1ccc2ccccc2n1)C(=O)OC` (stereo not shown) [Compound 56], the IC50 was 50 to 10000 nM.

In the case of `Cc1ccccc1NC(=O)Nc1ccc(CC(=O)N[C@@H](CCC(=O)O)C(=O)N[C@@H](CC(=O)O)C(=O)N[C@@H](CC(C)C)C(N)=O)cc1` [Compound 264], the IC50 was below 50 nM.

With `Cc1ccccc1NC(=O)Nc1ccc(CC(=O)N[C@H](C(=O)N[C@@H](CC(=O)O)C(=O)N[C@H](CCC(=O)O)C(N)=O)[C@@H](C)O)cc1` [Compound 260], the IC50 is below 50 nM.

For `CSCC[C@H](NC(=O)[C@@H](NC(=O)[C@H](CC(=O)O)NC(=O)[C@H](CC(C)C)NC(=O)c1ccc2ccccc2n1)C(C)C)C(=O)O` [Compound 186] (Quinaldoyl-LDVM-OH), the half-inhibitory concentration (IC50) is above 10000 nM.

Take `CC(C)C[C@H](NC(=O)Cc1ccc(NC(=O)Nc2ccccc2)cc1)C(=O)N[C@@H](CC(=O)O)C(=O)N[C@@H](C(=O)N1CCC[C@H]1C(N)=O)C(C)C` [Compound 211] ({NHPh-CO}-[X1]LD[dV]P-NH2): the IC50 fell in the range of 50 to 10000 nM.

In the case of `COC(=O)C(CCSC)NC(=O)C(NC(=O)C(CC(=O)O)NC(=O)C(CC(C)C)NC(=O)OC(C)(C)C)C(C)C` (stereo not shown) [Compound 167] (Boc-LDVM-OMe; configuration not given here), the IC50 was above 10000 nM.

Consider `CCC(C)C(NC(=O)C(CC(=O)O)NC(=O)C(CC(C)C)NC(=O)c1ccc2ccccc2n1)C(=O)NC` (stereo not shown) [Compound 57], for which the IC50 lay in the range of 50 to 10000 nM.

For the compound `CSCC[C@H](NC(=O)Cc1ccc(NC(=O)Nc2ccccc2C)cc1)C(=O)N[C@@H](CC(=O)O)C(=O)N[C@@H](Cc1c[nH]c2ccccc12)C(N)=O` [Compound 228], the IC50 is below 50 nM.

Turning to `CC(C)CC(NC(=O)CCCc1ccccc1)C(=O)NC(CC(=O)O)C(=O)NCC1CCCCC1` (stereo not shown) [Compound 25], the IC50 is above 10000 nM.

As for `CC(C)CC(NC(=O)CCc1ccc(O)cc1)C(=O)NC(CC(=O)O)C(=O)NCC1CCCCC1` (stereo not shown) [Compound 14], the IC50 is above 10000 nM.

As for `Cc1ccccc1NC(=O)Nc1ccc(CC(=O)N[C@@H](CCC(=O)O)C(=O)N[C@@H](CC(=O)O)C(=O)N[C@H](C(N)=O)[C@@H](C)O)cc1` [Compound 268], the IC50 was below 50 nM.

`Cc1ccccc1NC(=O)Nc1ccc(CC(=O)N[C@H](C(=O)N[C@@H](CC(=O)O)C(=O)N[C@H](CC(N)=O)C(N)=O)[C@@H](C)O)cc1` [Compound 259]: the IC50 is below 50 nM.

In the case of `CC[C@H](C)[C@H](NC(=O)CCc1ccc(O)cc1)C(=O)N[C@H](CC(=O)O)C(=O)NCC(C)C` [Compound 16], the IC50 is above 10000 nM.

For `CSCC[C@H](NC(=O)Cc1ccc(NC(=O)Nc2ccccc2C)cc1)C(=O)N[C@@H](CCC(=O)O)C(=O)N[C@@H](CC(=O)O)C(N)=O` [Compound 308], the IC50 was below 50 nM.

Take `CC(C)CC(NC(=O)Cc1ccc(NC(=O)Nc2ccccc2)cc1)C(=O)NC(CC(=O)O)C(=O)NC(C(=O)N1CCCC1C(N)=O)C(C)C` (stereo not shown) [Compound 201] ({NHPh-CO}-[X1]LDVP-NH2; configuration not given here): the IC50 was in the range of 50 to 10000 nM.

`CC(C)CC(NC(=O)c1cc2ccccc2cn1)C(=O)NC(CC(=O)O)C(=O)NCC1CCCCC1` (stereo not shown) [Compound 11]: the IC50 was above 10000 nM.

For `Cc1ccccc1NC(=O)Nc1ccc(CC(=O)N[C@@H](CO)C(=O)N[C@@H](CC(=O)O)C(=O)N[C@@H](Cc2c[nH]c3ccccc23)C(N)=O)cc1` [Compound 284], the IC50 was below 50 nM.

In the case of `CC(C)C(NC(=O)C(CC(=O)O)NC(=O)C(NC(=O)C1Cc2ccccc2CN1)C1CCCCC1)C(=O)O` (stereo not shown) [Compound 84] (H-[Tic][Chg]DV-OH; configuration not given here), the IC50 is above 10000 nM.

In the case of `Cc1ccccc1NC(=O)Nc1ccc(CC(=O)N[C@@H](CCC(N)=O)C(=O)N[C@@H](CC(=O)O)C(=O)N[C@H](CCC(=O)O)C(N)=O)cc1` [Compound 305], the IC50 is below 50 nM.

Consider `CSCC[C@H](NC(=O)[C@H](CC(=O)O)NC(=O)[C@H](CCC(N)=O)NC(=O)Cc1ccc(NC(=O)Nc2ccccc2C)cc1)C(N)=O` [Compound 303], for which the IC50 was below 50 nM.

For the compound `COC(=O)C1CCCN1C(=O)C(NC(=O)C(CC(=O)O)NC(=O)C(CC(C)C)NC(=O)CCc1ccc(O)cc1)C(C)C` (stereo not shown) [Compound 39], the IC50 was above 10000 nM.

With `CC(C)C[C@H](NC(=O)CC1CC2CCC1C2)C(=O)N[C@@H](CC(=O)O)C(=O)N[C@H](C(=O)O)C(C)C` (stereo partly shown) [Compound 390], the IC50 was above 10000 nM.

Turning to `Cc1ccccc1NC(=O)Nc1ccc(CC(=O)N[C@@H](CO)C(=O)N[C@@H](CC(=O)O)C(=O)N[C@H](CO)C(N)=O)cc1` [Compound 285], the IC50 is below 50 nM.

As for `Cc1ccccc1NC(=O)Nc1ccc(CC(=O)NC(CC(C)C)C(=O)NC(CC(=O)O)C(=O)NC(C(=O)O)c2ccccc2)cc1` (stereo not shown) [Compound 207], the IC50 lay in the range of 50 to 10000 nM.

For `CC(C)C[C@H](NC(=O)c1cccnc1Sc1ccccc1)C(=O)N[C@@H](CC(=O)O)C(=O)N[C@H](C(=O)O)C(C)C` [Compound 373], the IC50 was above 10000 nM.

Turning to `Cc1ccccc1NC(=O)Nc1ccc(CC(=O)N[C@H](C(=O)N[C@@H](CC(C)C)C(=O)N2CCC[C@H]2C(=O)N[C@@H](CC(=O)O)C(=O)O)C(C)C)cc1` [Compound 339] ({NH(2-Me-phenyl)-CO}-[X1]VLPD-OH), the IC50 was above 10000 nM.
